Values of other authors in patent publication US10526334B2, “Methods for preparing bis-tetrahydroisoquinoline-containing compounds” (California Institute of Technology, priority 2017, dated 2020).
Where two headings read alike, the source gives them in different places.

Tests used:
[1] = not given; remark: listed apart in the source
[2] = read-out: IC50 (A549 lung cancer)

in vivo half-life (t1/2) (in rodents)	t1/2 (rodent) (rodent)	t1/2 (human) ([1]; human)	in vivo half-life (t1/2) ([1]; in humans)	SMILES	IC50 (A375 melanoma)	IC50 (A549 lung cancer; [2])	IC50 (A549 lung cancer; read-out: IC50 vs. A549 lung cancer)	IC50 (DU145 prostate cancer)	IC50 (HCT116 colon cancer)	rodent in vivo half-life (rodent)
20 h	20 h	96 to 180 h	96 to 180 h	COc1cc2c(cc1O)CCN[C@]21CS[C@@H]2c3c(OC(C)=O)c(C)c4c(c3[C@H](COC1=O)N1[C@@H]2[C@H]2c3c(cc(C)c(OC)c3O)C[C@@H]([C@@H]1O)N2C)OCO4 [Et 743, ecteinascidin 743]	0.15 nM	1 nM				
				COC1=C(C)C(=O)C2=C(C1=O)[C@@H]1[C@@H]3CC4=C(C(=O)C(OC)=C(C)C4=O)[C@H](COC(C)=O)N3[C@@H](O)[C@H](C2)N1C [Jorumycin, jorumycin]			0.24 nM	0.49 nM	0.57 nM	
				COc1c(C)c(OC)c2c(c1O)[C@@H]1[C@@H]3Cc4c(OC)c(C)c(OC)c(O)c4[C@H](CNC(=O)c4ccc5ccccc5n4)N3[C@@H](C#N)[C@H](C2)N1C [QAD]	1.3 nM	4.4 nM				0.283 h
